In US8835470B2, “Mandelamide heterocyclic compounds” (Bristol-Myers Squibb Company, priority 2010, dated 2014):
pEC50, pIC50: −log10 of the molar value. Where a name gives a salt, the structure may show the parent alone.

Key:
S1P1 [1] = biological target: T1, S1P1 (Homo sapiens (Human), UniProt P21453); assay: Receptor [35S] GTPγS Binding Assay, S1P1; format: biochemical; settings: for pEC50: membranes from S1P1/CHO cells, [35S]GTP; for GTPγS S1P3/S1P1: ratio of GTPγS S1P3 EC50 to GTPγS S1P1 EC50, * and ** S1P3 value at detection limit
T1 sequence (P21453 whole entry): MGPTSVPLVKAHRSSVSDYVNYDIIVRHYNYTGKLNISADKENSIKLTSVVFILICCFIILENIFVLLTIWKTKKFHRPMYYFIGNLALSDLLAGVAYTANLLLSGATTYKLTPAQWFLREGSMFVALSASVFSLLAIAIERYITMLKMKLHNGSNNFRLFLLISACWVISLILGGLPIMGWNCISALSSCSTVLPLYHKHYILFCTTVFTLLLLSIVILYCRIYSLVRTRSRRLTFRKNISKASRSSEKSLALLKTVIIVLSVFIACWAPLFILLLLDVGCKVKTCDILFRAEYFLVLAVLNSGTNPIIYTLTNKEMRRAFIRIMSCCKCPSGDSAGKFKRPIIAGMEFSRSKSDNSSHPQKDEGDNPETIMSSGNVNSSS
Description: (§1) Receptor [35S] GTPγS Binding Assays
(§2) Membranes prepared from S1P1/CHO cells or EDG3-Ga15-bla HEK293T cells were added to the compound plate (40 μl/well, final protein 3 μg/well) with MULTIDROP®. [^35S]GTP (1250 Ci/mmol, Perkin Elmer) was diluted in assay buffer: 20 mM HEPES, pH7.5, 10 mM MgCl2, 150 mM NaCl, 1 mM EGTA, 1 mM DTT, 10 μM GDP, 0.1% fatty acid free BSA, and 10 μg/ml Saponin to 0.4 nM. 40 μl of the [^35S] GTP solution was added to the compound plate with a final concentration of 0.2 nM. The reaction was kept at room temperature for 45 min. At the end of incubation, all the mixtures in the compound plate were transferred to a 384 well FB filter plates via GPCR robot system. The filter plate was washed with water 4 times by using the modified manifold Embla plate washer and dried at 60° C. for 45 min. 30 μl of MicroScint 20 scintillation fluid was added to each well for counting at Packard TOPCOUNT®.
A larger value for the GTPγS S1P3 EC50 value indicated less activity in the GTPγS S1P3 binding assay.

S1P1 [2] = biological target: T1, S1P1; assay: S1P1 Binding Assay; settings: membranes from CHO cells expressing human S1P1; 33P-S1P ligand; rounded to two digits
Description: Membranes were prepared from CHO cells expressing human S1P1. Cells were dissociated in buffer containing 20 mM HEPES, pH 7.5, 50 mM NaCl, 2 mM EDTA and Protease Inhibitor cocktail (Roche), and disrupted on ice using the Polytron homogenizer. The homogenate was centrifuged at 20,000 rpm (48,000 G) and the supernatant was discarded. The membrane pellets were resuspended in buffer containing 50 mM HEPES, pH 7.5, 100 mM NaCl, 1 mM MgCl2, 2 mM EDTA and stored in aliquots at −80° C. after protein concentration determination. Membranes (2 μg/well) and 0.03 nM final concentration of ^33P-S1P ligand (1 mCi/ml, American Radiolabeled Chemicals) were added to the compound plates. Binding was performed for 45 minutes at room temperature, terminated by collecting the membranes onto GF/B filter plates, and radioactivity was measured by TOPCOUNT®. The competition data of the test compounds over a range of concentrations was plotted as percentage inhibition of radioligand specific binding. The IC50 is defined as the concentration of competing ligand needed to reduce specific binding by 50%.
The results in Table A were rounded to two digits.

S1P3 = S1P3 (Homo sapiens (Human), UniProt Q99500); assay: Receptor [35S] GTPγS Binding Assay, S1P3; format: biochemical; settings: membranes from EDG3-Ga15-bla HEK293T cells; * detection limit 62,500 nM, ** detection limit 32,500 nM
S1P3, sequence (Q99500 whole entry): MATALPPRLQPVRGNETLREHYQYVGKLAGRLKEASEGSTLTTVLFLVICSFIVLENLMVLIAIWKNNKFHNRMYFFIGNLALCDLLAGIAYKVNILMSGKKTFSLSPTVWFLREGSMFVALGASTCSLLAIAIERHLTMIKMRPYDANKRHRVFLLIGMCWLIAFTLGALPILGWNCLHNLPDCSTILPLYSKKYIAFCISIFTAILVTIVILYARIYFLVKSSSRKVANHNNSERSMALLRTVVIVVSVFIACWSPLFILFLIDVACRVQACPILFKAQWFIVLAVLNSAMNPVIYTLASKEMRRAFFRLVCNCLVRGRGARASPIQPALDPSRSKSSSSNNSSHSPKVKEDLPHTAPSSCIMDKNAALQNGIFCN
Description: as §1
as §2, with “Compounds were loaded in a 384 FALCON® v-bottom plate (0.5 μl/well in a 3-fold dilution). Membranes” for “Membranes”, “TOPCOUNT®. EC50 is defined as the agonist concentration that corresponds to 50% of the Ymax (maximal response) obtained for each individual compound tested.” for “TOPCOUNT®.”
A smaller value for GTPγS S1P1 EC50 value indicated greater activity for the compound in the GTPγS S1P1 binding assay. A larger value for the GTPγS S1P3 EC50 value indicated less activity in the GTPγS S1P3 binding assay.

In the case of `CNC(=O)[C@H](CCc1ccccc1)NC(=O)C(O)c1ccc(-c2noc(-c3onc(-c4ccccc4)c3C(F)(F)F)n2)cc1` (mixture of isomers) [Example 26, (R/S)-(2S)-2-(2-Hydroxy-2-(4-(5-(3-phenyl-4-(trifluoromethyl)isoxazol-5-yl)-1,2,4-oxadiazol-3-yl)phenyl)acetamido)-N-methyl-4-phenylbutanamide], the pEC50 (S1P1 [1]) was 5.37, the “GTPγS S1P3/S1P1” value (S1P1 [1]) was 1.4 and the pIC50 (S1P1 [2]) was 6.04. For the same compound, the pEC50 (S1P3) was 5.21.

For `CNC(=O)[C@H](C)NC(=O)C(O)c1ccc(-c2noc(-c3onc(-c4ccccc4)c3C(F)(F)F)n2)cc1` (mixture of isomers) [Example 32, (R/S)-2-(2-Hydroxy-2-(4-(5-(3-phenyl-4-(trifluoromethyl)isoxazol-5-yl)-1,2,4-oxadiazol-3-yl)phenyl)acetamido)-N-methyl(S)propanamide], the pEC50 (S1P1 [1]) was 8.82, the “GTPγS S1P3/S1P1” value (S1P1 [1]) was 10707 and the pIC50 (S1P1 [2]) was 8.59. For the same compound, the pEC50 (S1P3) was 4.79.

`O=C(NC[C@@H]1CCCC[C@H]1O)C(O)c1ccc(-c2noc(-c3cnn(-c4ccccc4)c3C(F)(F)F)n2)cc1` (mixture of isomers) [Example 152, (R/S)-2-hydroxy-N-(((1S,2R)-2-hydroxycyclohexyl)methyl)-2-(4-(5-(1-phenyl-5-(trifluoromethyl)-1H-pyrazol-4-yl)-1,2,4-oxadiazol-3-yl)phenyl)acetamide] was tested, and the pEC50 (S1P1 [1]) was 6.29, the “GTPγS S1P3/S1P1” value (S1P1 [1]) was 22 and the pIC50 (S1P1 [2]) was 6.59. The pEC50 (S1P3) was 4.95.

`O=C(O)CCNC(=O)C(O)c1ccc(-c2noc(-c3onc(-c4ccccc4)c3C(F)(F)F)n2)cc1` (racemic) [Example 22, (R/S)-3-(2-Hydroxy-2-(4-(5-(3-phenyl-4-(trifluoromethyl)isoxazol-5-yl)-1,2,4-oxadiazol-3-yl)phenyl)acetamido)propanoic acid] was tested, and the pEC50 (S1P1 [1]) was 6.99, the “GTPγS S1P3/S1P1” value (S1P1 [1]) was > 604* and the pIC50 (S1P1 [2]) was 7.54. For the same compound, the pEC50 (S1P3) was < 4.20.

`CCN(C)C(=O)C(O)c1ccc(-c2noc(-c3onc(-c4ccccc4)c3C(F)(F)F)n2)cc1` (racemic) [Example 24, (R/S)-N-Ethyl-2-hydroxy-N-methyl-2-(4-(5-(3-phenyl-4-(trifluoromethyl)isoxazol-5-yl)-1,2,4-oxadiazol-3-yl)phenyl)acetamide] was tested, and the pEC50 (S1P1 [1]) was 5.98, the “GTPγS S1P3/S1P1” value (S1P1 [1]) was > 60* and the pIC50 (S1P1 [2]) was 6.46. For the same compound, the pEC50 (S1P3) was < 4.20.

`CC(C)(C)OC(=O)NCCNC(=O)C(O)c1ccc(-c2noc(-c3onc(-c4ccccc4)c3C(F)(F)F)n2)cc1` (racemic) [Example 51, (R/S)-tert-Butyl 2-(2-hydroxy-2-(4-(5-(3-phenyl-4-(trifluoromethyl)isoxazol-5-yl)-1,2,4-oxadiazol-3-yl)phenyl)acetamido)ethylcarbamate] was tested, and the pEC50 (S1P1 [1]) was 7.05, the pIC50 (S1P1 [2]) was 7.51 and the pEC50 (S1P3) was 4.87.

For `CCNC(=O)C(O)c1ccc(-c2noc(-c3cnn(-c4ccccc4)c3C(F)(F)F)n2)cc1` (racemic) [Example 61, (R/S)-N-Ethyl-2-hydroxy-2-(4-(5-(1-phenyl-5-(trifluoromethyl)-1H-pyrazol-4-yl)-1,2,4-oxadiazol-3-yl)phenyl)acetamide], the pEC50 (S1P1 [1]) was 7.47, the “GTPγS S1P3/S1P1” value (S1P1 [1]) was > 1827* and the pIC50 (S1P1 [2]) was 8.07. For the same compound, the pEC50 (S1P3) was < 4.20.

`O=C(NCCO)C(O)c1ccc(-c2noc(-c3noc(-c4ccccc4)c3C(F)(F)F)n2)cc1` (racemic) [Example 62, (R/S)-2-Hydroxy-N-(2-hydroxyethyl)-2-(4-(5-(5-phenyl-4-(trifluoromethyl)isoxazol-3-yl)-1,2,4-oxadiazol-3-yl)phenyl)acetamide] was tested, and the pEC50 (S1P1 [1]) was 7.90, the “GTPγS S1P3/S1P1” value (S1P1 [1]) was 731 and the pIC50 (S1P1 [2]) was 8.49. It also gave a pEC50 (S1P3) of 5.04.

`CCNC(=O)C(O)c1ccc(-c2noc(-c3noc(-c4ccccc4)c3C(F)(F)F)n2)cc1` (racemic) [Example 67, (R/S)-N-Ethyl-2-hydroxy-2-(4-(5-(5-phenyl-4-(trifluoromethyl)isoxazol-3-yl)-1,2,4-oxadiazol-3-yl)phenyl)acetamide] was tested, and the pEC50 (S1P1 [1]) was 7.76, the “GTPγS S1P3/S1P1” value (S1P1 [1]) was 1006 and the pIC50 (S1P1 [2]) was 7.77. For the same compound, the pEC50 (S1P3) was 4.76.

With `O=C(NCc1cc2ccccc2[nH]1)C(O)c1ccc(-c2noc(-c3onc(-c4ccccc4)c3C(F)(F)F)n2)cc1` (racemic) [Example 86, (R/S)-N-((1H-Indol-2-yl)methyl)-2-hydroxy-2-(4-(5-(3-phenyl-4-(trifluoromethyl)isoxazol-5-yl)-1,2,4-oxadiazol-3-yl)phenyl)acetamide] the pEC50 (S1P1 [1]) was 5.81, the “GTPγS S1P3/S1P1” value (S1P1 [1]) was > 20** and the pIC50 (S1P1 [2]) was 6.74. The pEC50 (S1P3) was < 4.51.

For `O=C(NCC1CCCN1)C(O)c1ccc(-c2noc(-c3onc(-c4ccccc4)c3C(F)(F)F)n2)cc1` (racemic) [Example 88, (R/S)-2-Hydroxy-2-(4-(5-(3-phenyl-4-(trifluoromethyl)isoxazol-5-yl)-1,2,4-oxadiazol-3-yl)phenyl)-N-(pyrrolidin-2-ylmethyl)acetamide, TFA], the pEC50 (S1P1 [1]) was 6.99, the “GTPγS S1P3/S1P1” value (S1P1 [1]) was 58 and the pIC50 (S1P1 [2]) was 7.54. For the same compound, the pEC50 (S1P3) was 5.23.

With `O=C(NCc1nc2ccccc2[nH]1)C(O)c1ccc(-c2noc(-c3onc(-c4ccccc4)c3C(F)(F)F)n2)cc1` (racemic) [Example 90, (R/S)-N-((1H-Benzo[d]imidazol-2-yl)methyl)-2-hydroxy-2-(4-(5-(3-phenyl-4-(trifluoromethyl)isoxazol-5-yl)-1,2,4-oxadiazol-3-yl)phenyl)acetamide] the pEC50 (S1P1 [1]) was 7.50, the “GTPγS S1P3/S1P1” value (S1P1 [1]) was 171 and the pIC50 (S1P1 [2]) was 7.89. The pEC50 (S1P3) was 5.27.

In the case of `O=C(NC1CCC1)C(O)c1ccc(-c2noc(-c3onc(-c4ccccc4)c3C(F)(F)F)n2)cc1` (racemic) [Example 116, (R/S)-N-Cyclobutyl-2-hydroxy-2-(4-(5-(3-phenyl-4-(trifluoromethyl)isoxazol-5-yl)-1,2,4-oxadiazol-3-yl)phenyl)acetamide], the “GTPγS S1P3/S1P1” value (S1P1 [1]) was > 387* and the pEC50 (S1P3) was < 4.20.

With `O=C(NCc1cnco1)C(O)c1ccc(-c2noc(-c3onc(-c4ccccc4)c3C(F)(F)F)n2)cc1` (racemic) [Example 126, (R/S)-2-hydroxy-N-(oxazol-5-ylmethyl)-2-(4-(5-(3-phenyl-4-(trifluoromethyl)isoxazol-5-yl)-1,2,4-oxadiazol-3-yl)phenyl)acetamide] the pEC50 (S1P1 [1]) was 7.87, the “GTPγS S1P3/S1P1” value (S1P1 [1]) was 1484 and the pIC50 (S1P1 [2]) was 8.68. For the same compound, the pEC50 (S1P3) was 4.70.

In the case of `Cn1cccc1CNC(=O)C(O)c1ccc(-c2noc(-c3onc(-c4ccccc4)c3C(F)(F)F)n2)cc1` (racemic) [Example 132, (R/S)-2-hydroxy-N-((1-methyl-1H-pyrrol-2-yl)methyl)-2-(4-(5-(3-phenyl-4-(trifluoromethyl)isoxazol-5-yl)-1,2,4-oxadiazol-3-yl)phenyl)acetamide], the pEC50 (S1P1 [1]) was 6.20, the “GTPγS S1P3/S1P1” value (S1P1 [1]) was 27 and the pIC50 (S1P1 [2]) was 7.38. The pEC50 (S1P3) was 4.77.

In the case of `O=C(NCc1ccccn1)C(O)c1ccc(-c2noc(-c3cnn(-c4ccccc4)c3C(F)(F)F)n2)cc1` (racemic) [Example 137, (R/S)-2-hydroxy-2-(4-(5-(1-phenyl-5-(trifluoromethyl)-1H-pyrazol-4-yl)-1,2,4-oxadiazol-3-yl)phenyl)-N-(pyridin-2-ylmethyl)acetamide], the pEC50 (S1P1 [1]) was 7.38, the “GTPγS S1P3/S1P1” value (S1P1 [1]) was 267 and the pIC50 (S1P1 [2]) was 8.31. For the same compound, the pEC50 (S1P3) was 4.96.
